Assay results: patent US9434688B2, “Indole derivatives as selective androgen receptor modulators (SARMS)” (Janssen Pharmaceutica, NV, priority 2004, dated 2016)

Columns and labels:
androgen receptor [1] = target: T1, androgen receptor (Rattus norvegicus, UniProt P15207); assay: L929 Androgen Receptor Functional Assay, Adenovirus Transduction; assay type: cell-based; design: expressed in transfected cells; host or cells: L929 cells transduced with adenovirus AdEasy+rAR; settings: concentration of 3000 nM; for % Activity: L929 agonist testing; for % Inhibition: L929 antagonist testing with R1881
T1 sequence (P15207 1-902): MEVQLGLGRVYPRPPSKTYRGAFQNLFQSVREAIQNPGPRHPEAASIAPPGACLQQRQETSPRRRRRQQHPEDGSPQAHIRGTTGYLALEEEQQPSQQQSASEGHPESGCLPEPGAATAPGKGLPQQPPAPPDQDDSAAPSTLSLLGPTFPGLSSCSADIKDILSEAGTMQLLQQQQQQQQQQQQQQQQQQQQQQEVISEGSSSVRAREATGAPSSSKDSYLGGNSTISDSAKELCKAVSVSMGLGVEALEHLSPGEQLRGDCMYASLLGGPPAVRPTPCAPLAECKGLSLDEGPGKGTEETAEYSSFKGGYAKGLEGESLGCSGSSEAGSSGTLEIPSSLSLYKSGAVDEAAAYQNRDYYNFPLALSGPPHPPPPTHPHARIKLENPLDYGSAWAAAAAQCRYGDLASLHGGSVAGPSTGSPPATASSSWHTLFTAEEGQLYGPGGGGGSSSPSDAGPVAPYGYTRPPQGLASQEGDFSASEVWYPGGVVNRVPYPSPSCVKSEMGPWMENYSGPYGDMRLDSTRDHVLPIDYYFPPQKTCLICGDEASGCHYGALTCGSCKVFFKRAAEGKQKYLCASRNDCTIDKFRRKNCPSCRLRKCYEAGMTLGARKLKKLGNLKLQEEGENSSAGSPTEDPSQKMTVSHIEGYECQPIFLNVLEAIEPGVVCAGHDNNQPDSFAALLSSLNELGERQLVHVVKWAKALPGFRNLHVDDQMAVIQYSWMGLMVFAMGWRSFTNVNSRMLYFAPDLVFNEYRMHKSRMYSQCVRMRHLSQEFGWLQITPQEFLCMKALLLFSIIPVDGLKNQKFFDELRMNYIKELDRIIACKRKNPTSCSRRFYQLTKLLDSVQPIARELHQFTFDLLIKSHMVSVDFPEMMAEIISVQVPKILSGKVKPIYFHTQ
Experimental: L929 cells were plated in 96-well plates at 20,000 cells per well, in DMEM/F12 (GIBCO) containing 10% (v/v) charcoal-treated fetal bovine serum (Hyclone) and lacking phenol red. The plates were then incubated overnight at 37° C. in 5% (v/v) humidified CO2.
Test compound dilutions were prepared in 100% (v/v) DMSO, if necessary. Each dilution was made to 1250× the final desired assay concentration.
First, 2 mL of DMEM/F12 lacking phenol red was pipetted into the wells of a 2-mL 96-well assay block. Next, 4 μL of the 1250× test compound dilutions were pipetted into each well of the assay block. The mixtures within the well were then carefully mixed by pipette.
In a 15 mL or 50 mL sterile centrifuge tube, a 2.5 nM (2.5×) dilution of R1881 (methyl-trienolone) in DMEM/F12 lacking phenol red was prepared.
In a second 15 mL or 50 mL centrifuge tube a solution containing an equal volume of DMEM to the first and an equal volume of 100% (v/v) DMSO to the volume of R1881 used in the first tube was prepared.
In a 15 mL or 50 mL sterile centrifuge tube, a dilution in DMEM/F12 of the adenovirus AdEasy+rAR at an moi of 1:500 per well was prepared.
The medium was removed from the 96-well plates by inversion and dried, inverted, very briefly. As soon as possible after medium removal, 40 μL of the diluted unlabeled test compound was added to each well, in duplicate. To each well designated for antagonist testing was added 40 μL of the 2.5 nM R1881 dilution to the wells for antagonist testing. To each well designated for agonist testing was added 40 μL of the DMSO dilution. Then 20 μL of the diluted adenovirus were added to all wells. The plates were incubated for 48 hours at 37° C. in 5% (v/v) humidified CO2.
To each well was added 100 μL of Steady-Glo luciferase assay substrate (Promega) and the plates were placed on a rotary shaker for 1 min. The plates were then incubated at room temperature in the dark for one hour. The contents of each well were then transferred to a white microtiter plate (Packard) and read on a Luminoskan Ascent (Thermo Lab Systems).
L929 AR percent activity was determined by testing dilutions of the test compound using a concentration of 3000 nM unless otherwise noted. L929 percent inhibition was determined by testing dilutions of the test compound using a concentration of 3000 nM. […] Luciferase activity per well were measured and EC50s and IC50s determined by linear regression.

androgen receptor [2] = target: T1, androgen receptor; assay: COS-7 Whole-Cell Androgen Receptor Binding Assay, Adenovirus Transduction; settings: COS Binding; for % Inhibition: concentration of 3000 nM unless otherwise noted
Experimental: COS-7 cells were plated in 96-well plates at 20,000 cells per well, in a solution of DMEM/F12 (GIBCO) containing 10% (v/v) charcoal-treated fetal bovine serum (Hyclone) and lacking phenol red. The cells were then incubated overnight at 37° C. in 5% (v/v) humidified CO2.
Test compound solutions were prepared by diluting the test compound in 100% (v/v) DMSO, if necessary.
Next, 1 mL of DMEM/F12 lacking phenol red was pipetted into each of the wells of a 2-mL 96-well assay block. […] The wells were carefully mixed by pipette.
In a 15 mL or 50 mL sterile centrifuge tube, a dilution in DMEM/F12 of the adenovirus AdEasy+rAR at a moi of 1:50 per well was prepared.
The medium was removed from the 96-well plates by inversion and the plates dried very briefly, inverted, on a sterile towel. As soon as possible after medium removal, 40 μL of the diluted test compound was added to each well, in duplicate. […] The plates were then incubated for 48 hours at 37° C. in 5% (v/v) humidified CO2.
The medium was removed from the above incubated plates by inversion and dried. Each well was then washed with 0.35 mL of 1×PBS. The PBS was then removed from the plates by inversion and the plates dried.
To each well was then added 50 μL of 0.5% (v/v) Triton X-100 (Sigma) in 1×PBS and the plates placed on a rotary shaker for 5 min. The contents of each well were then transferred to an OptiPlate-96 (Packard) scintillation plate. To each well was then added 0.2 mL of Microscint-20 (Packard) and the wells counted on a TopCount (Packard).
Percent inhibition was determined by testing dilutions of the test compound (usually duplicates of 10 μM) in the binding assay. Counts per well were measured and percents of inhibition determined. […] Counts per well were measured and IC50s determined by linear regression.

androgen receptor [3] = target: T1, androgen receptor; assay: Androgen Receptor Binding Using Rat Ventral Prostate Cytosol; design: from tissue; host or cells: ventral prostate cytosol of castrated male Sprague Dawley or Wistar rats; settings: Rat Cytosol; Concentration 3000 nM
Experimental: Rat Prostate Cytosol Preparation:
Male Sprague Dawley or Wistar rats (Charles River, 200-300 g) were used for each preparation. The day before preparing the cytosol, the rats were castrated using standard surgical procedures.
The rats were euthanized by carbon dioxide asphyxiation. The rat prostates were quickly removed and placed on ice in pre-chilled, pre-weighed 50 mL plastic tubes. No more than five prostates were placed into one tube. The tubes were then weighed and the prostate tissue wet weights calculated.
To the chilled prostate tissue was then added […] of chilled homogenization buffer. The homogenization buffer was freshly prepared by mixing 10 mM Tris.HCl, pH 7.4, 1 mM sodium molybdate, 1.5 mM EDTA, 1 mM dithiothreitol, 10% (v/v) glycerol and 1% protease inhibitor cocktail (Sigma P 8340).
The prostate tissue was homogenized in a cold room using a pre-chilled Polytron PT3000 homogenizer (Brinkmann). Homogenization was performed at a speed setting of 20, three times for 10 sec bursts. The tubes containing the prostate tissue was kept on ice while homogenizing. The homogenate was allowed to rest on ice for 20 sec between bursts.
The homogenate was then placed into pre-chilled 3 mL polycarbonate ultracentrifuge tubes and centrifuged in the TLA-100 rotor of a TL-100 ultracentrifuge for 12 min at 100,000 rpm at 4° C. The resulting supernatant was stored in 1 mL aliquots at −80° C. until needed.
Binding to the androgen receptor was determined according to the protocol described in Example 86 using the above prepared rat cytosol.
% Inhibition was determined by testing dilutions of the test compound (usually duplicates of 10 μM) in the binding assay. Counts per well were measured and percents of inhibition determined. […] Counts per well were measured and IC50s determined by linear regression.

[4] = test system: castrated male Sprague Dawley rats; assay: Ventral Prostate and Seminal Vesicle Weight In Vivo Assay; design: species or system rat; key: active: non weight adjusted prostate weight was ≦40 mg or the % Inhibition prostate weight, body weight adjusted was ≧40% @ 2 mg/day dosage; inactive: they did not meet the specified criteria defined above; settings: immature castrated male rats, once daily for five days, with testosterone propionate 2 mg/kg subcutaneously
Experimental: Immature (approximately 50 g) castrated male Sprague Dawley rats (Charles River) were treated once daily for five days with test compound (usually given orally at 40 mg/kg in a volume of 0.3 mL, in 30% cyclodextrin or 0.5% methylcellulose vehicle) and with testosterone propionate (given subcutaneously by injection at the nape of the neck at 2 mg/kg, in a volume of 0.1 mL in sesame oil). On the sixth day, the rats were euthanized by asphyxiation in carbon dioxide. Ventral prostates and seminal vesicles were removed and their wet weights determined.
A test compound was said to be “active” if the non weight adjusted prostate weight was ≦40 mg or the % Inhibition prostate weight, body weight adjusted was ≧40% @ 2 mg/day dosage.

| Compound | % Activity (androgen receptor [1]) [%] | % Inhibition (androgen receptor [2]) [%] | active / inactive: inhibition of testosterone-enhanced prostate weight [4] | other results |
| --- | --- | --- | --- | --- |
| C[S+]([O-])CCC(C)(O)c1cc2cc([N+](=O)[O-])c(C(F)(F)F)cc2[nH]1 (mixture of isomers) [compound 50] | 2 | 7 | – | – |
| CC(O)(C[S+]([O-])Cc1ccccc1)c1cc2cc([N+](=O)[O-])c(C(F)(F)F)cc2[nH]1 (mixture of isomers) [compound 161] | 2 | 20 | – | % Inhibition (androgen receptor [3]): 39% |
| CC(O)(CSc1ccc(N)cc1)c1cc2cc(Cl)c(C(F)(F)F)cc2n1S(C)(=O)=O (racemic) [compound 125] | −5 | 30 | – | – |
| COc1ccc(S(=O)(=O)CC(C)(O)c2cc3cc(Cl)c(C(F)(F)F)cc3[nH]2)cc1 (racemic) [compound 129] | −5 | 10 | – | % Inhibition (androgen receptor [1]): −8%; % Inhibition (androgen receptor [3]): 39.5% |
| COc1ccc(SCC(C)(O)c2cc3cc(Cl)c(C(F)(F)F)cc3n2S(C)(=O)=O)cc1 (racemic) [compound 130] | −5 | −8 | – | % Inhibition (androgen receptor [3]): 32.55% |
| CCSCC(C)(O)c1cc2cc(Cl)ccc2n1S(C)(=O)=O (racemic) [compound 154] | 2 | 50 | – | % Inhibition (androgen receptor [1]): 7% |
| CCSCC(C)(O)c1cc2cc(F)c(Cl)cc2[nH]1 (racemic) [compound 206] | 5 | −40 | active | – |
| CCSCC(C)(O)c1[nH]c2cc(C(F)(F)F)c([N+](=O)[O-])cc2c1C (racemic) [compound 221] | −1 | – | inactive | – |
| CC(C)SC(C)(CO)c1cc2cc([N+](=O)[O-])c(C(F)(F)F)cc2[nH]1 (racemic) [compound 268] | 9 | – | – | % Inhibition (androgen receptor [3]): −3.3% |
| CC(O)(CSCC(F)(F)F)c1cc2cc([N+](=O)[O-])c(C(F)(F)F)cc2[nH]1 (single isomer, unassigned) [compound 202] | 1 | 50 | – | – |
| N#Cc1cc2cc(C3(O)CCSC3)[nH]c2cc1C(F)(F)F (centres unmarked) [Compound #15] | – | – | inactive | – |
| OC1(c2cc3cc(Cl)c(C(F)(F)F)cc3[nH]2)CCSC1 (centres unmarked) [compound 14] | – | – | inactive | – |
| O=[N+]([O-])c1cc2cc(C3(O)CCSC3)[nH]c2cc1C(F)(F)F (centres unmarked) [compound 18] | – | – | inactive | – |
| CSCC(C)(O)c1cc2cc([N+](=O)[O-])c(C(F)(F)F)cc2[nH]1 (centres unmarked) [compound 139] | – | – | active | – |
| CCSCC(C)(O)c1[nH]c2cc(C(F)(F)F)c(Br)cc2c1C (centres unmarked) [compound 220] | – | – | – | IC50 (androgen receptor [2]): 34 nM |
| CCSCC(C)(O)c1cc2cc(C#N)c(Cl)cc2[nH]1 (centres unmarked) [compound 225] | – | – | active | – |
